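Test compounds were applied to cells in 96-well plates for 48 hours at 5 doses. GI50 is the concentration that inhibits growth by half.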 The source made the active and inactive calls. No stated cut-off is given here; in the data, active = GI50 up to about 1.1 µM and inactive = higher.
Assays:
Assay in all cases: NCI tumour cell line growth inhibition, 48 h
OVCAR-8 = system: OVCAR-8
ACHN = system: ACHN
HOP-92 = system: HOP-92
A498 = system: A498
U-251 = system: U-251
SF-295 = system: SF-295
SNB-75 = system: SNB-75
CCRF-CEM = system: CCRF-CEM
HOP-62 = system: HOP-62
SN12C = system: SN12C
Malme-3M = system: Malme-3M
SF-268 = system: SF-268
TK-10 = system: TK-10
MOLT-4 = system: MOLT-4
SK-MEL-2 = system: SK-MEL-2
HT-29 = system: HT-29
HCT-15 = system: HCT-15
KM12 = system: KM12
RXF 393 = system: RXF 393
OVCAR-5 = system: OVCAR-5

Row | SMILES | GI50 (OVCAR-8) | GI50 (ACHN) | GI50 (HOP-92) | GI50 (A498) | GI50 (U-251) | GI50 (SF-295) | GI50 (SNB-75) | GI50 (CCRF-CEM) | GI50 (HOP-62) | GI50 (SN12C) | GI50 (Malme-3M) | GI50 (SF-268) | GI50 (TK-10) | GI50 (MOLT-4) | GI50 (SK-MEL-2) | GI50 (HT-29) | GI50 (HCT-15) [µM] | GI50 (KM12) | GI50 (RXF 393) | GI50 (OVCAR-5)
1 | CC1=NC(C(=O)O)Cc2c1[nH]c1ccccc21 (configuration not stated) | > 100 µM (inactive) | > 100 µM (inactive) | 14.6 µM (inactive) | > 100 µM (inactive) | > 100 µM (inactive) | > 100 µM (inactive) | > 100 µM (inactive) | > 100 µM (inactive) | < 0.01 µM (active) | > 100 µM (inactive) | > 100 µM (inactive) | > 100 µM (inactive) | > 100 µM (inactive) | > 100 µM (inactive) | > 100 µM (inactive) | > 100 µM (inactive) | > 100 | – | – | –
2 | COc1ccc([C@H]2C=[N+]([O-])O[C@H](OC3CCCC3)[C@@H]2OC(C)=O)cc1OC | 20.7 µM (inactive) | 22.2 µM (inactive) | 14.3 µM (inactive) | > 100 µM (inactive) | 35 µM (inactive) | > 100 µM (inactive) | 28.4 µM (inactive) | 0.098 µM (active) | 72.1 µM (inactive) | – | 25.9 µM (inactive) | 33.7 µM (inactive) | 23.1 µM (inactive) | 32.6 µM (inactive) | 69.3 µM (inactive) | 20.7 µM (inactive) | 29.2 | 26.4 µM (inactive) | 13.3 µM (inactive) | –
3 | CCOC(=O)c1csc(NC(=O)CCCC#N)n1 | > 100 µM (inactive) | > 100 µM (inactive) | > 100 µM (inactive) | > 100 µM (inactive) | > 100 µM (inactive) | > 100 µM (inactive) | > 100 µM (inactive) | > 100 µM (inactive) | > 100 µM (inactive) | – | – | – | > 100 µM (inactive) | > 100 µM (inactive) | > 100 µM (inactive) | > 100 µM (inactive) | > 100 | > 100 µM (inactive) | > 100 µM (inactive) | > 100 µM (inactive)
4 | O=C1CN(c2ccccc2)C(=O)C1C(=O)Nc1ccc(Cl)c(Cl)c1 (configuration not stated) | – | 4 µM (inactive) | 2.53 µM (inactive) | – | 3.78 µM (inactive) | 3.72 µM (inactive) | 0.973 µM (active) | 1.84 µM (inactive) | 2.22 µM (inactive) | 4.73 µM (inactive) | – | 6.32 µM (inactive) | 7.05 µM (inactive) | 2.33 µM (inactive) | – | 3.68 µM (inactive) | 1.56 | – | – | 30.4 µM (inactive)
5 | CC1(C)C2CCC3(OCCO3)C1C(O)C2 (configuration not stated) | > 100 µM (inactive) | > 100 µM (inactive) | > 100 µM (inactive) | > 100 µM (inactive) | > 100 µM (inactive) | > 100 µM (inactive) | > 100 µM (inactive) | > 100 µM (inactive) | > 100 µM (inactive) | – | > 100 µM (inactive) | > 100 µM (inactive) | > 100 µM (inactive) | > 100 µM (inactive) | > 100 µM (inactive) | > 100 µM (inactive) | > 100 | > 100 µM (inactive) | > 100 µM (inactive) | > 100 µM (inactive)
6 | Cc1ccc([N+](=O)[O-])cc1/N=N/C(=O)NNc1cc([N+](=O)[O-])ccc1C | 27 µM (inactive) | – | 70.8 µM (inactive) | 21.4 µM (inactive) | 32.9 µM (inactive) | 17.9 µM (inactive) | 21.3 µM (inactive) | 10 µM (inactive) | 26.4 µM (inactive) | > 10 µM (inactive) | 37.6 µM (inactive) | – | – | 9.29 µM (inactive) | 24 µM (inactive) | 21.9 µM (inactive) | 21.7 | 23.4 µM (inactive) | 18.1 µM (inactive) | 51.3 µM (inactive)
7 | O=C(NNC(=S)NCc1ccccc1)C12CC3CC(CC(C3)C1)C2 | > 100 µM (inactive) | 54.7 µM (inactive) | – | > 100 µM (inactive) | 49.8 µM (inactive) | 34.4 µM (inactive) | 49.4 µM (inactive) | 24.3 µM (inactive) | 75.2 µM (inactive) | > 100 µM (inactive) | > 100 µM (inactive) | 58.9 µM (inactive) | > 100 µM (inactive) | 19.1 µM (inactive) | 99.1 µM (inactive) | 45.3 µM (inactive) | 53.3 | 40.6 µM (inactive) | 89.1 µM (inactive) | > 100 µM (inactive)
8 | COc1cc2c(cc1OC)C(Cl)C(c1cc(OC)c(OC)c(OC)c1)=C2Cl (configuration not stated) | 17.5 µM (inactive) | 13.6 µM (inactive) | 4.73 µM (inactive) | 22.3 µM (inactive) | 16.4 µM (inactive) | 15.2 µM (inactive) | 2.69 µM (inactive) | 4.67 µM (inactive) | – | 13.9 µM (inactive) | 14.1 µM (inactive) | 16.6 µM (inactive) | 20.3 µM (inactive) | 7.06 µM (inactive) | 15.5 µM (inactive) | 14.4 µM (inactive) | 14.6 | – | – | –

Reference: ChEMBL document CHEMBL1201862, “PubChem BioAssay data set” (2004)
